Results: paper PMC11946194, “Rational Design, Synthesis, and Biological Evaluation of Novel Thiazole/Thiazolidinones Multitarget Anti-Human Immunodeficiency Virus Molecules” (Pharmaceuticals, 2025)
Read-outs that look alike come from different tables or passages of the source.

Assays:
[1] = biological target: T1, HIV-1 RT-associated RNase H (Human immunodeficiency virus type 1 group M subtype B, UniProt P04585); experiment: RT RNase H polymerase-independent cleavage assay; format: biochemical
T1 construct: quantification of RNase H activity of reverse transcriptase (RT) enzyme
Protocol: The HIV-1 RT-associated RNase H activity was measured following the protocol cited by the detection and quantification of RNase H activity of reverse transcriptase (RT) enzyme with a hybrid substrate formed by a fluorescein labeled RNA annealed with Dabcyl DNA. In this assay the reaction mixture containing tris–HCl, pH 7.8, MgCl2, dithiothreitol (DTT), KCl, hybrid RNA/DNA (5′-[…]-3′-fluorescein,5′-[…]-3′-Dabcyl), and RT were incubated for 1 h at 37 °C, the reaction was stopped by the addition of EDTA, and products were measured with a Victor 3 (Perkin PerkinElmer VICTOR X3 Multilabel Counter Microplate Reader, Cridersville, OH, USA ) at 490/528 nm. The experiment was performed in triplicate. IC50 values were determined through nonlinear regression analysis, where the dose–response curves were fitted to a sigmoidal model (log(inhibitor) vs. response) using GraphPad Prism 10 software.

[2] = biological target: T2, recombinant HIV-1 RT (Human immunodeficiency virus type 1 group M subtype B, UniProt P04585); experiment: HIV-1 RT RDDP inhibitory activity (Roche colorimetric immunoassay kit); format: biochemical
T2 construct: recombinant HIV-1 RT; purchased Roche
Protocol: As described in our previous work, HIV-1 reverse transcriptase (RT) activity was measured using the Roche colorimetric immunoassay kit. DNA synthesis by RT was quantified after 2 h incubation at 37 °C. The reaction included PolyA:oligodT RNA template, recombinant HIV-1 RT, and various substrates, with biotin-DIG-labeled DNA detected via streptavidin-coated ELISA wells. Inhibitor activity was tested by pre-incubating RT with compounds before substrate addition. The absorbance at 405 nm was measured to calculate enzyme activity and IC50 values. […] The experiment was performed in triplicate. The data analysis for obtaining the IC50 values and standard deviation (SD)was performed using nonlinear regression analysis, specifically fitting the dose–response curves to a sigmoidal model (log(inhibitor) vs. response) using the software GraphPad Prism 10.

[3] = Cellular viability, CCK cell viability assay; format: cell-based; conditions: human, MRC-5 cells (normal fetal lung fibroblasts)
Protocol: For the evaluation of cytotoxicity, compounds 1–15 were tested in the human normal fetal lung fibroblast MRC-5 cell line using the CCK cell viability assay. Each substance was tested at three different concentrations: 0.1 μM, 1 μM, and 10 μM. […] However, since all viability percentages were above 50%, no CC50 value could be calculated.
The normal human fetal lung fibroblast MRC-5 cell line (SI , 7)was cultured under standard conditions. Compounds were tested at 10 μM, 1 μM, and 0.1 μM. Results are expressed as mean ± standard deviation (SD) from triplicate experiments.
The previously established human normal MRC‐5 (human fetal lung fibroblasts; RRID:CVCL_0440)
approved for vaccine production was obtained, stored and used in a routine manner (1,2) in the
Laboratory of Pharmacology, School of Pharmacy, Aristotle University of Thessaloniki, Greece
(Laboratory of Ioannis S. Vizirianakis, Associate Professor in Molecular Pharmacology and
Pharmacogenomics) (<25 passages was applied). […]
Cell line MRC-5 information
ID/Proper Citation: (RRID:CVCL_0440)
URL: https://web.expasy.org/cellosaurus/CVCL_0440

[4] = system: HIV-1; conditions: cited from earlier work
[5] = biological target: T1, HIV-1 RT-associated RNase H; parameters: method as in PMID 25092689; conditions: cited from earlier work

| Compound | IC50 [1] [µM] | IC50 [2] [µM] | inhibition at 4 µM [2] [%] | viability at 24 h, 10 µM [3] [%] | Inhibition of viral replication [4] | IC50 ([5]; reference inhibitor) [µM] | Inhibition of RNase H activity ([5]; selective) |
| --- | --- | --- | --- | --- | --- | --- | --- |
| O=C1CSC(c2ccc(F)cc2)N1c1cccc(S(=O)(=O)Nc2nccs2)c1 (stereo not shown) [Compound 1, 3-(2-(4-Fluorophenyl)-4-oxothiazolidin-3-yl)-N-(thiazol-2-yl)benzenesulfonamide] | 14.3 ± 1.3 | 2.23 ± 0.15 | 68.3 | > 50 | – | – | – |
| O=C1CSC(c2ccc(F)cc2)N1c1nc(-c2cccc(S(=O)(=O)N3CCCC3)c2)cs1 (stereo not shown) [Compound 2, 2-(4-Fluorophenyl)-3-(4-(3-(pyrrolidin-1-ylsulfonyl)phenyl)thiazol-2-yl)thiazolidin-4-one] | > 50 | > 4 | 8.36 | > 50 | – | – | – |
| O=C1CSC(c2c(F)cccc2F)N1c1nc(-c2cccc(S(=O)(=O)N3CCCC3)c2)cs1 (stereo not shown) [Compound 3, 2-(2,6-Difluorophenyl)-3-(4-(3-(pyrrolidin-1-ylsulfonyl)phenyl)thiazol-2-yl)thiazolidin-4-one] | > 50 | > 4 | 24.3 | > 50 | – | – | – |
| COc1ccc(OC)c(C2SCC(=O)N2c2nc(-c3cccc(S(=O)(=O)N4CCCC4)c3)cs2)c1 (stereo not shown) [Compound 4, 2-(2,5-Dimethoxyphenyl)-3-(4-(3-(pyrrolidin-1-ylsulfonyl)phenyl)thiazol-2-yl)thiazolidin-4-one] | 1.47 ± 0.2 | 0.58 ± 0.07 | 86.6 | > 50 | – | – | – |
| O=C1CSC(c2ccccc2O)N1c1nc(-c2cccc(S(=O)(=O)N3CCCC3)c2)cs1 (stereo not shown) [Compound 5, 2-(2-Hydroxyphenyl)-3-(4-(3-(pyrrolidin-1-ylsulfonyl)phenyl)thiazol-2-yl)thiazolidin-4-one] | 18 ± 2.1 | > 4 | 45.2 | > 50 | – | – | – |
| COc1ccc(OC)c(C2SCC(=O)N2c2nc(-c3ccc(S(=O)(=O)N4CCOCC4)cc3)cs2)c1 (stereo not shown) [Compound 6, 2-(2,5-Dimethoxyphenyl)-3-(4-(4-(morpholinosulfonyl)phenyl)thiazol-2-yl)thiazolidin-4-one] | 2.5 ± 0.3 | 0.72 ± 0.06 | 81.3 | > 50 | – | – | – |
| O=C1CSC(c2ccc(F)cc2)N1c1nc(-c2ccc(S(=O)(=O)N3CCOCC3)cc2)cs1 (stereo not shown) [Compound 7, 2-(4-Fluorophenyl)-3-(4-(4-(morpholinosulfonyl)phenyl)thiazol-2-yl)thiazolidin-4-one] | > 50 | > 4 | 12 | > 50 | – | – | – |
| O=C1CSC(c2c(F)cccc2F)N1c1nc(-c2ccc(S(=O)(=O)N3CCOCC3)cc2)cs1 (stereo not shown) [Compound 8, 2-(2,6-Difluorophenyl)-3-(4-(4-(morpholinosulfonyl)phenyl)thiazol-2-yl)thiazolidin-4-one] | > 50 | > 4 | 33 | > 50 | – | – | – |
| O=C1CSC(c2c(Cl)cccc2Cl)N1c1nc(-c2ccc(S(=O)(=O)N3CCOCC3)cc2)cs1 (stereo not shown) [Compound 9, 2-(2,6-Dichlorophenyl)-3-(4-(4-(morpholinosulfonyl)phenyl)thiazol-2-yl)thiazolidin-4-one] | 9.01 ± 0.1 | > 4 | 2.48 | > 50 | – | – | – |
| O=C1CSC(c2c(Cl)cccc2Cl)N1c1nc(-c2ccc(F)cc2)cs1 (stereo not shown) [Compound 10, 2-(2,6-Dichlorophenyl)-3-(4-(4-fluorophenyl)thiazol-2-yl)thiazolidin-4-one] | > 50 | > 4 | 1.59 | > 50 | – | – | – |
| O=C1CSC(c2c(F)cccc2Cl)N1c1nc2ccc(C(F)(F)F)cc2s1 (stereo not shown) [Compound 11, 2-(2-Chloro-6-fluorophenyl)-3-(6-(trifluoromethyl)benzo[d]thiazol-2-yl)thiazolidin-4-one] | 25.4 ± 0.4 | 0.32 ± 0.03 | 92.4 | > 50 | – | – | – |
| O=C1CSC(c2c(F)cccc2F)N1c1nc(-c2ccc(F)cc2)cs1 (stereo not shown) [Compound 12, 2-(2,6-Difluorophenyl)-3-(4-(4-fluorophenyl)thiazol-2-yl)thiazolidin-4-one] | > 50 | > 4 | 5.86 | > 50 | – | – | – |
| N#Cc1ccc2nc(N3C(=O)CSC3c3c(F)cccc3F)sc2c1 (stereo not shown) [Compound 13, 2-(2-(2,6-Difluorophenyl)-4-oxothiazolidin-3-yl)benzo[d]thiazole-6-carbonitrile] | 16.4 ± 1.7 | > 4 | 21.4 | 55 | – | – | – |
| O=C1CSC(c2c(F)cccc2F)N1c1nc2cc(-c3ccccc3)c(-c3ccccc3)cc2s1 (stereo not shown) [Compound 14, 2-(2,6-Difluorophenyl)-3-(5,6-diphenylbenzo[d]thiazol-2-yl)thiazolidin-4-one] | > 50 | > 4 | 7.9 | > 50 | – | – | – |
| O=C1CSC(c2c(Cl)cccc2Cl)N1c1nc2ccc(C(F)(F)F)cc2s1 (stereo not shown) [Compound 15, 2-(2,6-Dichlorophenyl)-3-(6-(trifluoromethyl)benzo[d]thiazol-2-yl)thiazolidin-4-one] | > 50 | > 4 | 8.52 | 57.9 | – | – | – |
| Cc1ccnc2c1NC(=O)c1cccnc1N2C1CC1 [Nevirapine, reference compound] | – | – | 93.8 | – | – | – | – |
| CCOC(=O)C(=O)CC(=O)/C=C/c1cccn1Cc1ccccc1Cl [RDS1759] | – | – | – | – | low micromolar range | 7.3 ± 0.1 | low micromolar range |
